# Literature values as cited in publication PMC10817174, “Integrated drug response prediction models pinpoint repurposed drugs with effectiveness against rhabdomyosarcoma” (PLOS ONE, 2024).
# Legend:
# GDSC-RD cell line = conditions: Table S2, published drug response ref Iorio et al. (2016); cited from earlier work
# GDSC-SJCRH30 cell line = conditions: Table S2, published drug response ref Iorio et al. (2016); cited from earlier work
Compound,Iorio_RD (GDSC-RD cell line),Iorio_SJCRH30 (GDSC-SJCRH30 cell line)
CCc1cc(-c2n[nH]c(C)c2-c2ccc3c(c2)OCCO3)c(O)cc1O [CCT018159],R,R
CN(C)Cc1cccc(N/C(=C2\C(=O)Nc3cc(C(=O)N(C)C)ccc32)c2ccccc2)c1 [BIX02189],R,R
CCCCCCCCCCCC1=C(O)C(=O)C=C(O)C1=O [Embelin],R,R
CCN1CCN(Cc2ccc(NC(=O)c3ccc(C)c(/C=C/c4cnc5[nH]ccc5c4OC)c3)cc2C(F)(F)F)CC1 [HG-6-64-1],R,R
N#CC(c1ccnc(NCCc2cccnc2)n1)c1nc2ccccc2s1 (stereo not drawn) [AS601245],R,R
CCT007093,R,R
C[C@]1(O)C[C@@H](c2nc(-c3ccc4ccc(-c5ccccc5)nc4c3)c3c(N)nccn32)C1 [OSI-906],S,S
NC(=O)Nc1sc(-c2ccc(F)cc2)cc1C(N)=O [TPCA-1],R,R
CCC1=C[C@@H]2CN(C1)Cc1c([nH]c3ccccc13)[C@@](C(=O)OC)(c1cc3c(cc1OC)N(C)[C@H]1[C@@](O)(C(=O)OC)[C@H](OC(C)=O)[C@]4(CC)C=CCN5CC[C@]31[C@@H]54)C2 [Vinorelbine],R,R
COc1cc2ncnc(-n3nc(-c4ccccn4)nc3N)c2cc1OC [CP466722],R,R
C#Cc1cccc(Nc2ncnc3cc(OC)c(OCCCCCCC(=O)NO)cc23)c1 [CUDC-101],R,R
Nc1[nH]nc2nnc(-c3c(-c4ccccc4)nn4ccccc34)cc12 [FR-180204],R,R
Cc1cccc(Nc2nc(-c3ccncc3)cs2)c1 [STF-62247],R,R
CCc1cc(Nc2nccc(-c3c(-c4ccc(OC)c(C(=O)Nc5c(F)cccc5F)c4)nc4ccccn34)n2)c(OC)cc1N1CCC(N2CCN(S(C)(=O)=O)CC2)CC1 [GSK-1904529A],R,R
COC(=O)CNC(=O)C(=O)OC [DMOG],R,R
C/C(O)=C(\C#N)C(=O)Nc1cc(Br)ccc1Br [LFM-A13],R,R
C=CC(=O)Nc1cc(NC(=O)c2ccc(C)c(NC(=O)c3ccno3)c2)cc(C(F)(F)F)c1 [QL-XI-92],S,S
CCNC(=O)c1noc(-c2cc(C(C)C)c(O)cc2O)c1-c1ccc(CN2CCOCC2)cc1 [AUY922],R,R
COc1cc(/C=C/C(=O)N2CCC=CC2=O)cc(OC)c1OC [piperlongumine],S,R
CCC/C=C/C=C/C(=O)O[C@H]1/C(=C/C(=O)OC)C[C@H]2C[C@H]([C@@H](C)O)OC(=O)C[C@H](O)C[C@@H]3C[C@H](OC(C)=O)C(C)(C)[C@](O)(C[C@@H]4C/C(=C/C(=O)OC)C[C@H](/C=C/C(C)(C)[C@]1(O)O2)O4)O3 [Bryostatin-1],R,R
CO[C@@]12[C@H](COC(N)=O)C3=C(C(=O)C(C)=C(N)C3=O)N1C[C@@H]1N[C@@H]12 [Mitomycin-C],R,R
CCn1c(-c2nonc2N)nc2c(C#CC(C)(C)O)ncc(OC[C@H]3CCCNC3)c21 [GSK690693],R,S

Compound,Iorio_RD (GDSC-RD cell line),Iorio_SJCRH30 (GDSC-SJCRH30 cell line)
CC(C)CC(=O)Nc1[nH]nc2c1CN(C(=O)C1CCN(C)CC1)C2(C)C [PHA-793887],R,R
Nc1ccn([C@@H]2O[C@H](CO)[C@@H](O)C2(F)F)c(=O)n1 [Gemcitabine],R,R
I-BET-151,R,R
O=C(Nc1cccc(Nc2ncc(Br)c(NCCc3cnc[nH]3)n2)c1)N1CCCC1 [BX-912],R,R
O=C(/C=C/c1cccnc1)NCCCCC1CCN(C(=O)c2ccccc2)CC1 [FK866],R,R
COc1ccc(C(=O)CC2(O)C(=O)Nc3c(Cl)ccc(Cl)c32)cc1 (stereo not drawn) [YK-4-279],R,R
COc1ccccc1S(=O)(=O)Nc1ccc2c(c1)CN(C)C(=O)N2 [PFI-1],R,R
CO[C@@H]1[C@H](N(C)C(=O)c2ccccc2)C[C@H]2O[C@]1(C)n1c3ccccc3c3c4c(c5c6ccccc6n2c5c31)C(=O)NC4 [Midostaurin],R,R
CCCC(=O)OCc1ccc(OC(=O)/C=C(C)/C=C/C=C(C)/C=C/C2=C(C)CCCC2(C)C)cc1 [VNLG-124],R,R
Cc1ccc(C(=O)N(CCCN)[C@@H](c2nc3cc(Cl)ccc3c(=O)n2Cc2ccccc2)C(C)C)cc1 [SB-715992],R,R
Cc1cccc(-c2[nH]c(C(C)(C)C)nc2-c2ccc3nccnc3c2)n1 [SB52334],R,R
CC(C)=CC[C@@H](O)C1=CC(=O)c2c(O)ccc(O)c2C1=O [Shikonin],R,R
C=CC(=O)Nc1cc(-n2c(=O)ccc3cnc4ccc(-c5cn[nH]c5)cc4c32)ccc1C [QL-X-138],R,R
S=C(NCc1ccc2c(c1)OCO2)N1CCN(c2ncnc3c2oc2ccccc23)CC1 [MP470],R,R
Cc1ccc(Nc2nccc(N(C)c3ccc4c(C)n(C)nc4c3)n2)cc1S(N)(=O)=O [Pazopanib],R,R
CC(C)[C@H](C(=O)Nc1ccc(C(=O)NO)cc1)c1ccccc1 [AR-42],R,R
CC[C@H](Nc1ncnc2[nH]cnc12)c1nc2cccc(F)c2c(=O)n1-c1ccccc1 [CAL-101],R,R
CC(C)(C)c1cc(NC(=O)Nc2ccc(-c3cn4c(n3)sc3cc(OCCN5CCOCC5)ccc34)cc2)no1 [AC220],R,R
C[C@@]1(C(=O)Nc2ccc(F)nc2)CCCN1c1nc(Nc2cc(C3CC3)n[nH]2)c2cccn2n1 [BMS-754807],S,S
CC(C)N(CCCNC(=O)Nc1ccc(C(C)(C)C)cc1)C[C@H]1O[C@@H](n2cc(Br)c3c(N)ncnc32)[C@H](O)[C@@H]1O [SGC0946],R,R
Cn1cc(C2=C(c3cn(C4CCN(Cc5ccccn5)CC4)c4ccccc34)C(=O)NC2=O)c2ccccc21 [LY317615],R,R
CN1CCc2c(c3ccccc3n2Cc2ccc(C(=O)NO)cc2)C1 [Tubastatin-A],S,R

Compound,Iorio_RD (GDSC-RD cell line),Iorio_SJCRH30 (GDSC-SJCRH30 cell line)
COc1cc(O)c2c(c1)/C=C/C[C@H](O)[C@H](O)C(=O)/C=C\C[C@H](C)OC2=O [Oxozeaenol],S,R
CCc1cncnc1N1CCN(Cc2nc3ccc(C(F)(F)F)cc3[nH]2)CC1 [PF-4708671],R,R
CCOc1cc2ncc(C#N)c(Nc3ccc(F)c(Cl)c3)c2cc1NC(=O)/C=C/CN(C)C [EKB-569],R,R
Cn1cncc1[C@@](N)(c1ccc(Cl)cc1)c1ccc2c(c1)c(-c1cccc(Cl)c1)cc(=O)n2C [Tipifarnib],R,R
COc1cccc2cc(-c3nc([C@H]4CC[C@H](C(=O)O)CC4)n4ncnc(N)c34)[nH]c12 [OSI-027],R,R
CCc1nc(-c2cccc(C)c2)c(-c2ccnc(NC(=O)c3ccccc3)c2)s1 [TAK-715],R,R
COc1cc(N2CCC(O)CC2)ccc1Nc1cc(Nc2ccccc2S(=O)(=O)C(C)C)c2cc[nH]c2n1 [MPS-1-IN-1],R,R
O=C(NC(COc1ccc2[nH]c(=O)[nH]c2c1)c1ccccc1)c1cccn(Cc2ccc(F)c(F)c2)c1=O (stereo not drawn) [KIN001-244],R,R
CCN(CC)CCCCNc1ncc2cc(-c3cc(OC)cc(OC)c3)c(NC(=O)NC(C)(C)C)nc2n1 [PD-173074],–,R
Nc1cccc2c1CN(C1CCC(=O)NC1=O)C2=O (stereo not drawn) [Lenalidomide],–,R
O=C1NC(=NCc2cccs2)S/C1=C\c1ccc2ncccc2c1 [RO-3306],–,R
CO[C@H]1C[C@@H]2CC[C@@H](C)[C@@](O)(O2)C(=O)C(=O)N2CCCC[C@H]2C(=O)O[C@H]([C@H](C)C[C@@H]2CC[C@@H](OC(=O)C(C)(CO)CO)[C@H](OC)C2)CC(=O)[C@H](C)/C=C(\C)[C@@H](O)[C@@H](OC)C(=O)[C@H](C)C[C@H](C)/C=C/C=C/C=C/1C [Temsirolimus],–,R
CN(Cc1cnc2nc(N)nc(N)c2n1)c1ccc(C(=O)N[C@@H](CCC(=O)O)C(=O)O)cc1 [Methotrexate],–,R
Cn1cc(C2=C(c3ccc(Cl)cc3Cl)C(=O)NC2=O)c2ccccc21 [SB-216763],–,R
NC(=O)Nc1cc(-c2cccc(F)c2)sc1C(=O)N[C@H]1CCCNC1 [AZD7762],–,S
CNC(=O)c1ccc(Nc2cc(Nc3ccccc3S(=O)(=O)C(C)C)c3cc[nH]c3n2)nc1 [HG-5-113-01],–,R
COc1cc(Nc2c(C#N)cnc3cc(OCCCN4CCN(C)CC4)c(OC)cc23)c(Cl)cc1Cl [Bosutinib],–,R
CC(=O)c1c(C)c2cnc(Nc3ccc(N4CCNCC4)cn3)nc2n(C2CCCC2)c1=O [PD-0332991],–,R
CCOc1nc(NC(=O)Cc2cc(OC)ccc2OC)cc(N)c1C#N [JNK-Inhibitor-VIII],–,R
Cc1ccc(-n2nc(C(C)(C)C)cc2NC(=O)Nc2ccc(OCCN3CCOCC3)c3ccccc23)cc1 [BIRB-0796],–,R
Cc1cn(-c2cc(NC(=O)c3ccc(C)c(Nc4nccc(-c5cccnc5)n4)c3)cc(C(F)(F)F)c2)cn1 [Nilotinib],–,R
